Tested on: MV-4-11 cells
Test: Gene expression microarray analysis (Affymetrix PrimeView) and GSEA
Format: cell-based, human
Parameters: RFU PODN (11730768_x_at) / Fold change /veh PODN (11730768_x_at) / RFU LINC00158 (11744669_a_at) / Fold change /veh LINC00158 (11744669_a_at) / RFU DUSP10 (11751237_a_at) / Fold change /veh DUSP10 (11751237_a_at) / RFU ID3 (11757404_x_at) / Fold change /veh ID3 (11757404_x_at) / RFU PLEKHG5 (11737974_s_at) / Fold change /veh PLEKHG5 (11737974_s_at) / RFU LRRC4B (11730491_at) / Fold change /veh LRRC4B (11730491_at) / RFU GIMAP4 (11747438_a_at) / Fold change /veh GIMAP4 (11747438_a_at) / RFU KRT8 (11758183_x_at) / Fold change /veh KRT8 (11758183_x_at) / RFU CNN1 (11734310_a_at) / Fold change /veh CNN1 (11734310_a_at) / RFU VPS37D (11726825_at) / Fold change /veh VPS37D (11726825_at) / RFU C10orf10 (11716522_x_at) / Fold change /veh C10orf10 (11716522_x_at) / RFU KIR2DL2 /// KIR2DL4 /// KIR2DL5A /// KIR2DL5B /// KIR2DS1 /// KIR2DS2 /// KIR2DS3 /// KIR2DS4 /// KIR3DL3 /// KIR3DL3 /// KIR3DS1 (11738374_at) / Fold change /veh KIR2DL2 /// KIR2DL4 /// KIR2DL5A /// KIR2DL5B /// KIR2DS1 /// KIR2DS2 /// KIR2DS3 /// KIR2DS4 /// KIR3DL3 /// KIR3DL3 /// KIR3DS1 (11738374_at) / RFU C1QL1 (11718748_at) / Fold change /veh C1QL1 (11718748_at) / RFU TMPRSS4 (11747572_a_at) / Fold change /veh TMPRSS4 (11747572_a_at) / RFU HAMP (11756126_x_at) / Fold change /veh HAMP (11756126_x_at) / RFU RNFT2 (11725882_a_at) / Fold change /veh RNFT2 (11725882_a_at) / RFU NR4A2 (11747474_a_at) / Fold change /veh NR4A2 (11747474_a_at) / RFU ABCC12 (11746883_a_at) / Fold change /veh ABCC12 (11746883_a_at) / RFU TMEM136 (11760407_x_at) / Fold change /veh TMEM136 (11760407_x_at) / RFU CLDN22 /// WWC2 (11732394_at) / Fold change /veh CLDN22 /// WWC2 (11732394_at) / RFU HLA-DPB1 (11760878_x_at) / Fold change /veh HLA-DPB1 (11760878_x_at) / RFU SPINT1 (11716480_a_at) / Fold change /veh SPINT1 (11716480_a_at) / RFU GAP43 (11754022_s_at) / Fold change /veh GAP43 (11754022_s_at) / RFU A4GNT (11735810_at) / Fold change /veh A4GNT (11735810_at) / RFU PRB3 (11715151_x_at) / Fold change /veh PRB3 (11715151_x_at) / RFU TUBB4B (11761932_at) / Fold change /veh TUBB4B (11761932_at) / RFU CAPN14 (11732068_a_at) / Fold change /veh CAPN14 (11732068_a_at) / RFU TMCC2 (11721928_a_at) / Fold change /veh TMCC2 (11721928_a_at) / RFU IRGQ (11745062_a_at) / Fold change /veh IRGQ (11745062_a_at) / RFU FAM174B (11720279_a_at) / Fold change /veh FAM174B (11720279_a_at) / RFU TMPRSS4 (11748680_a_at) / Fold change /veh TMPRSS4 (11748680_a_at) / RFU FAM212B (11763350_a_at) / Fold change /veh FAM212B (11763350_a_at) / RFU PLEKHG5 (11743358_a_at) / Fold change /veh PLEKHG5 (11743358_a_at) / RFU ZSCAN30 (11745921_a_at) / Fold change /veh ZSCAN30 (11745921_a_at) / RFU CMKLR1 (11741424_a_at) / Fold change /veh CMKLR1 (11741424_a_at) / RFU LOC101060620 /// MAPK8IP1 (11723275_at) / Fold change /veh LOC101060620 /// MAPK8IP1 (11723275_at) / RFU SPTSSB (11747773_x_at) / Fold change /veh SPTSSB (11747773_x_at) / RFU PRSS12 (11739890_at) / Fold change /veh PRSS12 (11739890_at) / RFU BIN1 (11741810_x_at) / Fold change /veh BIN1 (11741810_x_at) / RFU WNT11 (11732464_a_at) / Fold change /veh WNT11 (11732464_a_at) / RFU C10orf10 (11716521_a_at) / Fold change /veh C10orf10 (11716521_a_at) / RFU C5orf56 (11738089_at) / Fold change /veh C5orf56 (11738089_at) / RFU CYB561 (11721691_x_at) / Fold change /veh CYB561 (11721691_x_at) / RFU ANKRD19P (11752326_a_at) / Fold change /veh ANKRD19P (11752326_a_at) / RFU OR2T12 /// OR2T33 /// OR2T8 (11738714_s_at) / Fold change /veh OR2T12 /// OR2T33 /// OR2T8 (11738714_s_at) / RFU VCAN (11748164_a_at) / Fold change /veh VCAN (11748164_a_at) / RFU JSRP1 (11732532_at) / Fold change /veh JSRP1 (11732532_at) / RFU KRTAP10-11 (11738290_x_at) / Fold change /veh KRTAP10-11 (11738290_x_at) / RFU MYO3A (11730013_a_at) / Fold change /veh MYO3A (11730013_a_at) / RFU EBF3 (11725865_a_at) / Fold change /veh EBF3 (11725865_a_at) / RFU CAMK2N1 (11719241_x_at) / Fold change /veh CAMK2N1 (11719241_x_at) / RFU C5orf56 (11738088_a_at) / Fold change /veh C5orf56 (11738088_a_at) / RFU OLFML3 (11715873_a_at) / Fold change /veh OLFML3 (11715873_a_at) / RFU LOC100653217 /// NTM (11731650_a_at) / Fold change /veh LOC100653217 /// NTM (11731650_a_at) / RFU MAPK11 (11762145_a_at) / Fold change /veh MAPK11 (11762145_a_at) / RFU FIZ1 (11724087_x_at) / Fold change /veh FIZ1 (11724087_x_at) / RFU OASL (11726364_x_at) / Fold change /veh OASL (11726364_x_at) / RFU SOX15 (11748057_x_at) / Fold change /veh SOX15 (11748057_x_at) / RFU CD79A (11719716_a_at) / Fold change /veh CD79A (11719716_a_at) / RFU HIST1H1D (11736915_at) / Fold change /veh HIST1H1D (11736915_at) / RFU CASKIN2 (11723855_a_at) / Fold change /veh CASKIN2 (11723855_a_at) / RFU LOC730098 (11760151_x_at) / Fold change /veh LOC730098 (11760151_x_at) / RFU OR4N2 (11742367_at) / Fold change /veh OR4N2 (11742367_at) / RFU PRRT2 (11749266_a_at) / Fold change /veh PRRT2 (11749266_a_at) / RFU SNX32 (11753110_a_at) / Fold change /veh SNX32 (11753110_a_at) / RFU CDHR5 (11726645_a_at) / Fold change /veh CDHR5 (11726645_a_at) / RFU RCAN1 (11760418_a_at) / Fold change /veh RCAN1 (11760418_a_at) / RFU FAM167A (11723789_a_at) / Fold change /veh FAM167A (11723789_a_at) / RFU FAM26E (11764081_at) / Fold change /veh FAM26E (11764081_at) / RFU ISYNA1 (11749810_s_at) / Fold change /veh ISYNA1 (11749810_s_at) / RFU ACY1 (11761880_at) / Fold change /veh ACY1 (11761880_at) / RFU 11764098_at / Fold change /veh 11764098_at / RFU SAMD14 (11745864_x_at) / Fold change /veh SAMD14 (11745864_x_at) / RFU NPB (11741838_a_at) / Fold change /veh NPB (11741838_a_at) / RFU TMPRSS6 (11731388_a_at) / Fold change /veh TMPRSS6 (11731388_a_at) / RFU KRTAP10-2 (11738614_at) / Fold change /veh KRTAP10-2 (11738614_at) / RFU ARHGAP8 /// PRR5-ARHGAP8 (11727945_x_at) / Fold change /veh ARHGAP8 /// PRR5-ARHGAP8 (11727945_x_at) / RFU KRTAP5-7 /// NADSYN1 (11734609_at) / Fold change /veh KRTAP5-7 /// NADSYN1 (11734609_at) / RFU RASL12 (11751679_a_at) / Fold change /veh RASL12 (11751679_a_at) / RFU CDKN2B (11736163_a_at) / Fold change /veh CDKN2B (11736163_a_at) / RFU PRF1 (11729649_at) / Fold change /veh PRF1 (11729649_at) / RFU, ZNF638 /// ZNF638-IT1 / Fold change vs veh, ZNF638 /// ZNF638-IT1 / RFU, PANK3 / Fold change vs veh, PANK3 / RFU, SH3YL1 / Fold change vs veh, SH3YL1 / RFU, ZEB2 / Fold change vs veh, ZEB2 / RFU, NRIP1 / Fold change vs veh, NRIP1 / RFU, PTTG1IP / Fold change vs veh, PTTG1IP / RFU, CAPN2 / Fold change vs veh, CAPN2 / RFU, MED14 / Fold change vs veh, MED14 / RFU, SNORA58 / Fold change vs veh, SNORA58 / RFU, C1orf63 / Fold change vs veh, C1orf63 / RFU, LRRFIP1 / Fold change vs veh, LRRFIP1 / RFU, NDUFAF7 / Fold change vs veh, NDUFAF7 / RFU, SLC12A2 / Fold change vs veh, SLC12A2 / RFU, IBTK / Fold change vs veh, IBTK / RFU, ESF1 / Fold change vs veh, ESF1 / Fold change vs veh, TMEM50B / RFU, TAOK1 / Fold change vs veh, TAOK1 / RFU, ACBD3 / Fold change vs veh, ACBD3 / RFU, TMA16 / Fold change vs veh, TMA16 / RFU, RWDD3 / Fold change vs veh, RWDD3 / RFU, BCAT1 / Fold change vs veh, BCAT1 / RFU, EDEM3 / Fold change vs veh, EDEM3 / RFU, TMEM33 / Fold change vs veh, TMEM33 / RFU, WDR75 / Fold change vs veh, WDR75 / RFU, AHCTF1 / Fold change vs veh, AHCTF1 / RFU, TFRC / Fold change vs veh, TFRC / RFU, ZDHHC17 / Fold change vs veh, ZDHHC17 / RFU, NOM1 / Fold change vs veh, NOM1 / RFU, ARL8B / Fold change vs veh, ARL8B / RFU, ZBTB11 / Fold change vs veh, ZBTB11 / RFU, TAMM41 / Fold change vs veh, TAMM41 / RFU, KIAA1704 /// LOC100996395 / Fold change vs veh, KIAA1704 /// LOC100996395 / RFU, ING1 / Fold change vs veh, ING1 / RFU, TRMT61B / Fold change vs veh, TRMT61B / RFU, FUBP3 / Fold change vs veh, FUBP3 / RFU, TP53 / Fold change vs veh, TP53 / RFU, TNKS2 / Fold change vs veh, TNKS2 / RFU, ZFP14 / Fold change vs veh, ZFP14 / RFU, ACTR2 / Fold change vs veh, ACTR2 / RFU, PPP3R1 / Fold change vs veh, PPP3R1 / RFU, PIK3R1 / Fold change vs veh, PIK3R1 / RFU, HNRNPA1 / Fold change vs veh, HNRNPA1 / RFU, RNF170 / Fold change vs veh, RNF170 / RFU, ZNF28 / Fold change vs veh, ZNF28 / RFU, RNGTT / Fold change vs veh, RNGTT / RFU, OGT / Fold change vs veh, OGT / RFU, BRD1 / Fold change vs veh, BRD1 / RFU, MARS / Fold change vs veh, MARS / RFU, ZNF655 / Fold change vs veh, ZNF655 / RFU, FAHD1 / Fold change vs veh, FAHD1 / RFU, BDP1 / Fold change vs veh, BDP1 / RFU, LRRCC1 / Fold change vs veh, LRRCC1 / RFU, ARID1A / Fold change vs veh, ARID1A / RFU, ZNF146 / Fold change vs veh, ZNF146 / RFU, ZNF330 / Fold change vs veh, ZNF330 / RFU, GPN3 / Fold change vs veh, GPN3 / RFU, C9orf123 / Fold change vs veh, C9orf123 / RFU, N4BP2L2 / Fold change vs veh, N4BP2L2 / RFU, ARFIP1 / Fold change vs veh, ARFIP1 / RFU, FAM179B / Fold change vs veh, FAM179B / RFU, BCL10 / Fold change vs veh, BCL10 / RFU, UHRF1BP1L / Fold change vs veh, UHRF1BP1L / RFU, BET1 / Fold change vs veh, BET1 / RFU, CNOT2 / Fold change vs veh, CNOT2 / RFU, ZNF268 / Fold change vs veh, ZNF268 / Fold change vs veh, ZNF507 / RFU, DGCR2 / Fold change vs veh, DGCR2 / RFU, WDSUB1 / Fold change vs veh, WDSUB1 / Fold change vs veh, HSP90B1 /// MIR3652 / RFU, ADSS / Fold change vs veh, ADSS / RFU, GK / Fold change vs veh, GK / RFU, ZNF148 / Fold change vs veh, ZNF148 / RFU, TAF9 / Fold change vs veh, TAF9 / RFU, SLC1A5 / Fold change vs veh, SLC1A5 / RFU, SLMO2 / Fold change vs veh, SLMO2 / RFU, ABCC4 / Fold change vs veh, ABCC4 / RFU, LOC101060439 /// RAP1B / Fold change vs veh, LOC101060439 /// RAP1B / RFU, RFX7 / Fold change vs veh, RFX7 / RFU, GTPBP10 / Fold change vs veh, GTPBP10 / RFU, CNEP1R1 / Fold change vs veh, CNEP1R1 / RFU, BIVM-ERCC5 /// ERCC5 / Fold change vs veh, BIVM-ERCC5 /// ERCC5 / RFU, ILF3 / Fold change vs veh, ILF3 / RFU 11762660_at / Fold change /veh 11762660_at / RFU VCAN (11757783_s_at) / Fold change /veh VCAN (11757783_s_at) / RFU DDX43 (11728927_at) / Fold change /veh DDX43 (11728927_at) / RFU KRT8 (11758188_x_at) / Fold change /veh KRT8 (11758188_x_at) / RFU NKD1 (11759106_at) / Fold change /veh NKD1 (11759106_at) / RFU SRD5A1 (11742802_a_at) / Fold change /veh SRD5A1 (11742802_a_at) / RFU TPSAB1 /// TPSB2 (11721975_s_at) / Fold change /veh TPSAB1 /// TPSB2 (11721975_s_at) / RFU GSTM3 (11746129_a_at) / Fold change /veh GSTM3 (11746129_a_at) / RFU IL23R (11737362_x_at) / Fold change /veh IL23R (11737362_x_at) / RFU TMEM51 (11727254_a_at) / Fold change /veh TMEM51 (11727254_a_at) / RFU PIWIL2 (11732686_x_at) / Fold change /veh PIWIL2 (11732686_x_at) / RFU ORM1 (11744905_x_at) / Fold change /veh ORM1 (11744905_x_at) / RFU CCDC152 (11743942_at) / Fold change /veh CCDC152 (11743942_at) / RFU ECM1 (11717891_a_at) / Fold change /veh ECM1 (11717891_a_at) / RFU IL23R (11748794_a_at) / Fold change /veh IL23R (11748794_a_at) / RFU TNFAIP8L3 (11732012_x_at) / Fold change /veh TNFAIP8L3 (11732012_x_at) / RFU MBOAT4 (11741988_at) / Fold change /veh MBOAT4 (11741988_at) / RFU 11764193_at / Fold change /veh 11764193_at / RFU TMEM53 (11763286_at) / Fold change /veh TMEM53 (11763286_at) / RFU MAGEB2 (11727129_at) / Fold change /veh MAGEB2 (11727129_at) / RFU TMEM200A (11744735_a_at) / Fold change /veh TMEM200A (11744735_a_at) / RFU CCDC152 (11751479_a_at) / Fold change /veh CCDC152 (11751479_a_at) / RFU FAM211A (11726209_a_at) / Fold change /veh FAM211A (11726209_a_at) / RFU RGS16 (11746705_a_at) / Fold change /veh RGS16 (11746705_a_at) / RFU VCAN (11755009_s_at) / Fold change /veh VCAN (11755009_s_at) / RFU RHOB (11743442_s_at) / Fold change /veh RHOB (11743442_s_at) / RFU RGS16 (11720943_a_at) / Fold change /veh RGS16 (11720943_a_at) / RFU RGS16 (11720944_at) / Fold change /veh RGS16 (11720944_at) / RFU, VPS4B / Fold change vs veh, VPS4B / RFU, CREB1 / Fold change vs veh, CREB1 / RFU, DNAJC13 / Fold change vs veh, DNAJC13 / RFU, GNAQ / Fold change vs veh, GNAQ / RFU, CDK5R1 / Fold change vs veh, CDK5R1 / RFU, ZRANB3 / Fold change vs veh, ZRANB3 / RFU, CUL4A / Fold change vs veh, CUL4A / RFU, CCNY / Fold change vs veh, CCNY / RFU, UFL1 / Fold change vs veh, UFL1 / RFU, COG3 / Fold change vs veh, COG3 / RFU, DIAPH2 / Fold change vs veh, DIAPH2 / RFU, SKA2 / Fold change vs veh, SKA2 / RFU, AFF3 / Fold change vs veh, AFF3 / RFU, LMF1 / Fold change vs veh, LMF1 / RFU, IPO11 / Fold change vs veh, IPO11 / RFU, DFFB / Fold change vs veh, DFFB / RFU, FOXP1 / Fold change vs veh, FOXP1 / RFU, CARD8 / Fold change vs veh, CARD8 / RFU, STRN3 / Fold change vs veh, STRN3 / RFU, ADK / Fold change vs veh, ADK / RFU, RASSF2 / Fold change vs veh, RASSF2 / RFU, WIPF1 / Fold change vs veh, WIPF1 / RFU, LARP1B / Fold change vs veh, LARP1B / RFU, RASA1 / Fold change vs veh, RASA1 / RFU, RB1 / Fold change vs veh, RB1 / RFU, PPFIA1 / Fold change vs veh, PPFIA1 / RFU, MAT2A / Fold change vs veh, MAT2A / RFU, CCT5 / Fold change vs veh, CCT5 / RFU, WDR92 / Fold change vs veh, WDR92 / RFU, CUX1 / Fold change vs veh, CUX1 / RFU, TTC7A / Fold change vs veh, TTC7A / RFU, TMEM135 / Fold change vs veh, TMEM135 / RFU, DEPTOR / Fold change vs veh, DEPTOR / RFU, CPM / Fold change vs veh, CPM / RFU, DNAJB6 / Fold change vs veh, DNAJB6 / RFU, CACNA2D3 / Fold change vs veh, CACNA2D3 / RFU, DTX4 / Fold change vs veh, DTX4 / RFU, TFCP2 / Fold change vs veh, TFCP2 / RFU, GMCL1 /// GMCL1P1 / Fold change vs veh, GMCL1 /// GMCL1P1 / RFU, AEBP2 / Fold change vs veh, AEBP2 / RFU, SNHG1 /// SNORD22 /// SNORD25 /// SNORD26 /// SNORD27 /// SNORD28 /// SNORD29 /// SNORD31 / Fold change vs veh, SNHG1 /// SNORD22 /// SNORD25 /// SNORD26 /// SNORD27 /// SNORD28 /// SNORD29 /// SNORD31 / Fold change (Aza/veh), C12orf56 (ProbeSet 11735607_a_at) / Fold change (ACY-1035/veh), C12orf56 (ProbeSet 11735607_a_at) / Fold change (Aza/veh), FGFR1OP (ProbeSet 11751329_s_at) / Fold change (ACY-1035/veh), FGFR1OP (ProbeSet 11751329_s_at) / Fold change (Aza/veh), VPS36 (ProbeSet 11739960_a_at) / Fold change (ACY-1035/veh), VPS36 (ProbeSet 11739960_a_at) / RFU SYPL1 (11715823_x_at) / Fold change /veh SYPL1 (11715823_x_at) / RFU IGFBP7 (11715501_s_at) / Fold change /veh IGFBP7 (11715501_s_at) / RFU REEP3 (11722064_at) / Fold change /veh REEP3 (11722064_at) / RFU IGLL1 (11728026_x_at) / Fold change /veh IGLL1 (11728026_x_at): dose or concentration left out as unconfirmed
Details: MV-4-11 cells, 48 hours

## Nc1ccc(-c2cccs2)cc1NC(=O)c1ccc2c(c1)cc(C1CC1)n2CCN1CCOCC1 [ACY-1035]
  RFU LOC101060620 /// MAPK8IP1 (11723275_at): 10.15 RFU
